Measurements reported in patent publication US20220144842A1, “IRAK INHIBITORS, PREPARATION METHOD AND MEDICINAL USES THEREOF” (Eternity Bioscience Inc., priority 2020, published 2022).
Like-named read-outs stand apart in the source and are kept apart here.

Assays:
[1] = biological target: T1, full length human IRAK4 protein (Homo sapiens, UniProt Q9NWZ3); test: IRAK4 Biochemical Assay (Promega ADP-Glo IRAK4 Kinase Enzyme System); conditions: 3 nM enzyme, 2 μM MBP, 250 μM ATP, 60 min at room temperature, ADP-Glo luminescence
T1 construct: Purified full length human IRAK4 protein; purchased Signal Chem 112-10G-125
T1 sequence (Q9NWZ3 1-460): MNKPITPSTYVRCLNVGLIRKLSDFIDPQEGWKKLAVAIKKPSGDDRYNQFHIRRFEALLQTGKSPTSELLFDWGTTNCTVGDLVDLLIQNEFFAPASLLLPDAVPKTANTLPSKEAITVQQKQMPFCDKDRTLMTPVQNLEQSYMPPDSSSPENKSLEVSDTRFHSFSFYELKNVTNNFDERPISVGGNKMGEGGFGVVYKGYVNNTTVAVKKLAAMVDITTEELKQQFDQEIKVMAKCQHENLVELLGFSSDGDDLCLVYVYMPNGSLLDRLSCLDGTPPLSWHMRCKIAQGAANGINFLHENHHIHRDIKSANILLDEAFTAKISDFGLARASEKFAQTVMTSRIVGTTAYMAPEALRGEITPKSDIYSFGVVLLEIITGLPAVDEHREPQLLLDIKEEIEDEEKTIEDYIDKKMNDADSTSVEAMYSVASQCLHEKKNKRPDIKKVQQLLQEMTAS
Protocol: For the routine compound screening, an IRAK4 kinase assay was performed as follows using Promega ADP-Glo IRAK4 Kinase Enzyme System (Promega, Cat #2198-AD). Purified full length human IRAK4 protein (Signal Chem; Cat #112-10G-125) was diluted to a concentration 6 nM in assay buffer (25 mM MOPS, pH 7.2, 12.5 mM β-glycerol-phosphate, 25 mM MgCl2, 5 mM EGTA, 2 mM EDTA, 0.0025% Brij-35, add 0.25 mM DTT to Kinase Assay Buffer prior to use) containing IRAK4 inhibitor at 2× the final concentration in 0.4% DMSO. The reaction was performed in PerkinElmer Proxiplate-384 plus white plate (Fisher Scientific, Cat #50-905-2761) and started by the addition of an equal volume of the assay buffer containing 4 μM native swine myelin basic protein (MBP) and 500 μM ATP to achieve a final concentration of 3 nM enzyme, 2 μM MBP, 250 μM ATP, 1× compound, and 0.2% DMSO. The kinase reaction was allowed to run for 60 min at room temperature (25-27° C.), then 5 μL of ADP-Glo was added to the reaction in each well followed by 40 minutes-incubation at RT. To detect converted ATP, 10 μL Detection Buffer was added into each well and Incubate at RT in dark for 30 minutes. Finally, luminescence was read using Tecan with 1000 ms of integration time. The luminescent signal positively correlates with ADP amount and kinase activity. Data was analyzed by GraphPad Prism and IC50 was calculated using function log(inhibitor) vs. response—Variable slope (four parameters). Percentage of inhibition was calculated as below.
(§1) % inhibition=(1−(Reading(Sample)−Reading(Negative Control))/(Reading(Positive Control)−Reading(Negative Control)))×100%
The 0% inhibition value comes from the Reading of Positive Control wells having 0 nM compound. The 100% inhibition value comes from the Reading of Negative Control wells having no IRAK4 kinase.

IRAK4 = biological target: T2, IRAK4 (Homo sapiens, UniProt Q9NWZ3); test: IRAK4 Human PBMC TNFα Cell Based Assay (AlphaLISA); conditions: TNFα in culture medium
T2 construct: host or cells: human PBMCs
T2 sequence (Q9NWZ3 1-460): T1 sequence (Q9NWZ3 1-460)
Protocol: In this assay, serially diluted compounds were incubated with 1×10^4 human peripheral blood mononuclear cells (PBMCs) from STEMCELL (Cat #70025.1) per well of 384-well plate (Fisher Scientific; 50-905-2761) and cultured with TexMACS medium (Miltenyi, Cat #130-097-196), stimulated by R848 (0.5 μM) or IL-1β (10 ng/ml). Plates were covered with lids and incubated for 4 h (R848, Fisher Scientific, Cat #NC9801605) or 24 h (IL-1β, Fisher Scientific, Cat #ENRIL1BI) at 37° C. in a humidified tissue-culture incubator. After a brief centrifugation at 1000 rpm for 5 minutes, 5 μl of culture medium was used for the measurement of the TNFα amount using TNFα (human) AlphaLISA Detection Kit (PerkinElmer, Cat #AL208C) according to manufacturer's protocol. A biotinylated anti-TNFα antibody binds to the Streptavidin-coated Donor beads while another anti-TNFα antibody is conjugated to AlphaLISA Acceptor beads. In the presence of the TNFα, the beads come into close proximity. The excitation of the Donor beads causes the release of singlet oxygen molecules that triggers a cascade of energy transfer in the Acceptor beads, resulting in a sharp peak of light emission at 615 nm. AlphaLISA assay plates were read using PHERAstar. Percentage of inhibition was calculated as below:
as §1
The 0% inhibition value comes from the Reading of Positive Control wells having 0 nM compound. The 100% inhibition value comes from the Reading of Negative Control wells having no R848 or IL-1β.

[2] = human PBMCs stimulated by IL-1β (10 ng/ml), 24 h, read-out: IRAK4 PBMC AlphaLISA IL-1β (IC50)
[3] = human PBMCs stimulated by R848 (0.5 μM), 4 h, read-out: IRAK4 PBMC AlphaLISA R848 (IC50)

Structure (SMILES)	IC50 [1] [nM]	IRAK4 Biochemical Assay Max Inhibition (%) [1] [%]	IC50 (IRAK4; [2]) [nM]	IC50 (IRAK4; [3]) [nM]
c1cncc(-c2n[nH]c3nc(Nc4cnn(C5CCOCC5)c4)nc(N[C@H]4CC[C@H](N5CCOCC5)CC4)c23)c1 [Example 2, N^4-((1r,4r)-4-morpholinocyclohexyl)-3-(pyridin-3-yl)-N^6-(1-(tetrahydro-2H-pyran-4-yl)-1H-pyrazol-4-yl)-1H-pyrazolo[3,4-d]pyrimidine-4,6-diamine]	8.2	100	25	24
c1ccc(-c2n[nH]c3nc(Nc4cnn(C5CCOCC5)c4)nc(N[C@H]4CC[C@H](N5CCOCC5)CC4)c23)cc1 [Example 5, N^4-((1r,4r)-4-morpholinocyclohexyl)-3-phenyl-N^6-(1-(tetrahydro-2H-pyran-4-yl)-1H-pyrazol-4-yl)-1H-pyrazolo[3,4-d]pyrimidine-4,6-diamine]	16	100	56	63

The next lines start with the values.

IC50 [1] [nM]	IRAK4 Biochemical Assay Max Inhibition (%) [1] [%]	IC50 (IRAK4; [2]) [nM]	IC50 (IRAK4; [3]) [nM]	Structure (SMILES)
4.2	100	16	35	Brc1n[nH]c2nc(Nc3cnn(C4CCOCC4)c3)nc(N[C@H]3CC[C@H](N4CCOCC4)CC3)c12 [Example 1, 3-bromo-N^4-((1r,4r)-4-morpholinocyclohexyl)-N^6-(1-(tetrahydro-2H-pyran-4-yl)-1H-pyrazol-4-yl)-1H-pyrazolo[3,4-d]pyrimidine-4,6-diamine]
12	109			c1nn(C2CCOCC2)cc1Nc1nc(N[C@H]2CC[C@H](N3CCOCC3)CC2)c2c(-c3cn[nH]c3)n[nH]c2n1 [Example 3, N^4-((1r,4r)-4-morpholinocyclohexyl)-3-(1H-pyrazol-4-yl)-N^6-(1-(tetrahydro-2H-pyran-4-yl)-1H-pyrazol-4-yl)-1H-pyrazolo[3,4-d]pyrimidine-4,6-diamine]
12	100	0.9	1.6	Cc1cc(Nc2nc(N[C@H]3CC[C@H](N4CCOCC4)CC3)c3cn[nH]c3n2)sn1 [Example 6, N^6-(3-methylisothiazol-5-yl)-N^4-((1r,4r)-4-morpholinocyclohexyl)-1H-pyrazolo[3,4-d]pyrimidine-4,6-diamine]
